Measured values taken from patent US20250382274A1, “COMPOSITIONS AND METHODS FOR THE TREATMENT OF PARKINSON'S AND GAUCHER DISEASE” (CHILDREN'S HOSPITAL MEDICAL CENTER, priority 2024, published 2025).
Where a chain is given by its changes, count along the chain named.

Legend:
[1] = molecular target: T1, GCase (purified enzyme, Velaglucerase alfa, VPRIV) (Homo sapiens, UniProt P04062); test: GCase AC50 enzyme activity assay; assay type: biochemical; conditions: pH 5.6, 4-MuGlu substrate, compounds 0-40 μM
T1 construct: purchased Shire Human Genetic Therapies, Cambridge, MA
T1 sequence (P04062 40-536): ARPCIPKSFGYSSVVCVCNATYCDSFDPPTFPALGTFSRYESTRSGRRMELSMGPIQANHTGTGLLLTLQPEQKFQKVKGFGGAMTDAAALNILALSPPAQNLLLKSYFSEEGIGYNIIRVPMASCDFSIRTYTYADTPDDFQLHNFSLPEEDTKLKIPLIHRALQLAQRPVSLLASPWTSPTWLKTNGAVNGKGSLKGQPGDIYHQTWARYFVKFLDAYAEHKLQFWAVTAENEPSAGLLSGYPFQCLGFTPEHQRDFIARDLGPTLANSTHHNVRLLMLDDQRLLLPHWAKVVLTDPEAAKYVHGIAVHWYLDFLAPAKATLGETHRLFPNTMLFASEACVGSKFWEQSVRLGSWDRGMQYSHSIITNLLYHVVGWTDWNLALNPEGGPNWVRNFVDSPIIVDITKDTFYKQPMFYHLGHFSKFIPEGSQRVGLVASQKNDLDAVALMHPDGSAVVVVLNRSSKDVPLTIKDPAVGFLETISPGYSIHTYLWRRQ
Procedure: An in vitro enzyme assay was performed through a dose response curve of Compounds (0-40 μM) with purified enzyme (Velaglucerase alfa, VPRIV®, Shire Human Genetic Therapies, Cambridge, MA) in citric phosphate [0.025 mM] buffer (pH 5.6) where 4-MuGlu [4 mM] was the substrate. Compounds were pre-incubated with the enzyme for 40 minutes at room temperature prior to substrate addition, and then incubated at 37° C. for 1 hour. AC50 represents the concentration of a Compound that produces 50% of its maximal response in the in vitro GCase activity assay.
(§1) GCase activities were determined fluorometrically with 4-MuGlu. The relative fluorescence unit (RFU) of 4-MuGlu standard curve is generated with the plate reader (M5, Molecular Devise) as 1 n mole=56500 RFU. The human mutant Gaucher fibroblasts were purchased from Coriell Institute (Camden, NJ): N370/ΔGG (Cat #: GM00852) and L444P/L444P (cat #: GM00877)

[2] = molecular target: T2, GCase in healthy human fibroblasts (Homo sapiens, UniProt P04062); test: EC50 cell-based assay for GCase, healthy human fibroblasts (GCase cell); conditions: 5 days compound treatment (0-20 μM)
T2 construct: Healthy human fibroblasts (GCase cell); endogenous in cells; host or cells: healthy human fibroblasts
T2 sequence (P04062 40-536): T1 sequence (P04062 40-536)
Procedure: (§2) In cell assays, GCase activity measurements were carried out on harvested cell pellets on the 5th day of Compound treatment. Healthy human fibroblasts (GCase cell), mutant N370/ΔGG (GCase N370S) or L444P/L444P (GCase L444P) were incubated with the Compound (0-20 μM) for 5 days with 15% fetal bovine serum (FBS) in Dulbecco's Modified Eagle Medium (DMEM) in 100 mm culture dishes. Fresh Medium with Compound were replaced every other day. On the 5th day of Compound treatment, harvested cell pellets were lysed with 1% Na-taurocholate (Tc) and 1% Triton X-100 (Tx), and mixed with the reaction buffer which contained 0.025 mM Citric phosphate buffer (pH 5.6), 0.25% Tc/Tx and 4 mM 4-MuGlu, then incubated at 37° C. for 1 hour. EC50 represents the concentration of a Compound that produces 50% of its maximal response in the cell-based GCase activity assay.
as §1

[3] = molecular target: T3, GCase N370S (N370/ΔGG human mutant Gaucher fibroblasts) (Homo sapiens, UniProt P04062, N409S); test: EC50 cell-based assay for GCase, mutant N370/ΔGG fibroblasts (GCase N370S); conditions: 5 days compound treatment (0-20 μM)
T3 construct: The human mutant Gaucher fibroblasts were purchased from Coriell Institute; host or cells: human Gaucher fibroblasts N370/ΔGG
T3 sequence (P04062 40-536 N409S): T1 sequence (P04062 40-536) with N370S
Procedure: as §2, §1

[4] = molecular target: T4, GCase L444P (L444P/L444P human mutant Gaucher fibroblasts) (Homo sapiens, UniProt P04062, L483P); test: EC50 cell-based assay for GCase, mutant L444P/L444P fibroblasts (GCase L444P); conditions: 5 days compound treatment (0-20 μM)
T4 construct: The human mutant Gaucher fibroblasts were purchased from Coriell Institute; host or cells: human Gaucher fibroblasts L444P/L444P
T4 sequence (P04062 40-536 L483P): T1 sequence (P04062 40-536) with L444P
Procedure: as §2, §1

| SMILES | AC50 [1] [µM] | EC50 [2] [µM] | EC50 [3] [µM] | EC50 [4] [µM] |
| --- | --- | --- | --- | --- |
| O=C(COc1ccccc1C(=O)NCC1CCO1)Nc1ccc(Br)cc1 (centres unmarked) [Compound 2, 2-((4-bromophenylcarbamoyl)methoxy)-N-((oxetan-2-yl)methyl)benzamide] | < 10 | 10 to 100 | < 10 |  |
| O=C(Nc1ccc(Br)cc1)c1nc2cccc(C(=O)NCC3CCCO3)c2o1 (centres unmarked) [Compound 4, N2-(4-bromophenyl)-N7-((tetrahydrofuran-2-yl)methyl)benzo[d]oxazole-2,7-dicarboxamide] | < 10 | < 10 | < 10 |  |
| COc1ccc(NC(=O)c2nc3cccc(C(=O)NCC4CCCO4)c3o2)cc1 (centres unmarked) [Compound 8, N7-((tetrahydrofuran-2-yl)methyl)-N2-(4-methoxyphenyl)benzo[d]oxazole-2,7-dicarboxamide] | < 10 | < 10 | < 10 | < 10 |
| COc1ccc(NC(=O)C(C)(C)Oc2ccccc2C(=O)NCC2CCCO2)cc1 (centres unmarked) [Compound 32, 2-(2-(4-methoxyphenylcarbamoyl)propan-2-yloxy)-N-((tetrahydrofuran-2-yl)methyl)benzamide] | < 10 | < 10 | 10 to 100 |  |
| COc1ccc(NC(=O)C(C)(C)Oc2ccc(F)cc2C(=O)NCC2CCCO2)cc1 (centres unmarked) [Compound 33, 2-(2-(4-methoxyphenylcarbamoyl)propan-2-yloxy)-5-fluoro-N-((tetrahydrofuran-2-yl)methyl)benzamide] | < 10 | < 10 |  |  |
| CN(C)Cc1ccc(NC(=O)C(C)(C)Oc2ccccc2C(=O)NCC2CCCO2)cc1 (centres unmarked) [Compound 34, 2-(2-(4-((dimethylamino)methyl)phenylcarbamoyl)propan-2-yloxy)-N-((tetrahydrofuran-2-yl)methyl)benzamide] | < 10 | < 10 |  |  |
| CC(C)(Oc1ccccc1C(=O)NCC1CCCO1)C(=O)NC1CCOCC1 (centres unmarked) [Compound 35, 2-[1,1-dimethyl-2-oxo-2-(tetrahydropyran-4-ylamino)ethoxy]-N-(tetrahydrofuran-2-ylmethyl)benzamide] | < 10 | < 10 |  |  |
| CC(C)(Oc1ccccc1C(=O)NCC1CCCO1)C(=O)NC1CCCCC1 (centres unmarked) [Compound 36, 2-[2-(cyclohexylamino)-1,1-dimethyl-2-oxo-ethoxy]-N-(tetrahydrofuran-2-ylmethyl)benzamide] | < 10 | < 10 |  |  |
| CC(C)(Oc1ccc(F)cc1C(=O)NCC1CCO1)C(=O)NC1CCC(F)(F)CC1 (centres unmarked) [Compound 38, 2-[2-[(4,4-difluorocyclohexyl)amino]-1,1-dimethyl-2-oxo-ethoxy]-5-fluoro-N-(oxetan-2-ylmethyl)benzamide] | < 10 | < 10 |  |  |
| CC1(C)CCC(NC(=O)C(C)(C)Oc2ccc(F)cc2C(=O)NCC2CCO2)CO1 (centres unmarked) [Compound 39, 2-[2-[(6,6-dimethyltetrahydropyran-3-yl)amino]-1,1-dimethyl-2-oxo-ethoxy]-5-fluoro-N-(oxetan-2-ylmethyl)benzamide] | < 10 | < 10 |  |  |
| O=C(NCC1CCO1)c1cccc2c1CN(C(=O)Nc1ccc(C(F)(F)F)cc1)C2 (centres unmarked) [Compound 40, N4-(oxetan-2-ylmethyl)-N2-[4-(trifluoromethyl)phenyl]isoindoline-2,4-dicarboxamide] | < 10 | < 10 |  |  |
| O=C(NCC1CCO1)c1cccc2c1CN(C(=O)NC1CCC(F)(F)CC1)C2 (centres unmarked) [Compound 41, N2-(4,4-difluorocyclohexyl)-N4-(oxetan-2-ylmethyl)isoindoline-2,4-dicarboxamide] | < 10 | < 10 |  |  |
| COc1ccc(NC(=O)N2Cc3cccc(C(=O)NCC4CCO4)c3C2)cc1Cl (centres unmarked) [Compound 42, N2-(3-chloro-4-methoxyphenyl)-N4-(oxetan-2-ylmethyl) isoindoline-2,4-dicarboxamide] | < 10 | < 10 |  |  |
| COc1ccc(NC(=O)N2Cc3cccc(C(=O)NCC4CCO4)c3C2)c(Cl)c1 (centres unmarked) [Compound 43, N2-(2-chloro-4-methoxyphenyl)-N4-(oxetan-2-ylmethyl)isoindoline-2,4-dicarboxamide] | 10 to 100 | < 10 |  |  |
| CNc1ccc(NC(=O)c2nc3cc(F)cc(C(=O)NCC4CCO4)c3o2)cc1 (centres unmarked) [Compound 44, 5-fluoro-N2-(4-(methylamino)phenyl)-N7-(oxetan-2-ylmethyl)benzo[d]oxazole-2,7-dicarboxamide] | < 10 | < 10 |  |  |
| COc1ccc(NC(=O)c2nc3cc(F)cc(C(=O)NCC4CCO4)c3o2)c(Cl)c1 (centres unmarked) [Compound 45, N2-(2-chloro-4-methoxyphenyl)-5-fluoro-N7-(oxetan-2-ylmethyl)benzo[d]oxazole-2,7-dicarboxamide] | < 10 | < 10 |  |  |
| COc1ccc(NC(=O)C(C)(C)Oc2ccc(F)cc2C(NCC2CCO2)C(F)(F)F)cc1 (centres unmarked) [Compound 46, 2-(4-fluoro-2-(2,2,2-trifluoro-1-((oxetan-2-ylmethyl)amino)ethyl)phenoxy)-N-(4-methoxyphenyl)-2-methylpropanamide] | < 10 | < 10 |  |  |
| O=C(Nc1ccc(OCF)cc1)c1nc2cc(F)cc(C(=O)NCC3CCO3)c2o1 (centres unmarked) [Compound 47, 5-fluoro-N2-[4-(fluoromethoxy)phenyl]-N7-(oxetan-2-ylmethyl)-1,3-benzoxazole-2,7-dicarboxamid] | < 10 | < 10 |  |  |
| COc1ccc(NC(=O)c2nc3cc(F)cc(C(=O)NCC4CCCO4)c3o2)cc1 (centres unmarked) [Compound 48, 5-fluoro-N2-(4-methoxyphenyl)-N7-(tetrahydrofuran-2-ylmethyl)-1,3-benzoxazole-2,7-dicarboxamide] | < 10 | < 10 |  |  |
| O=C(Nc1ccc(OC(F)(F)F)cc1)c1nc2cc(F)cc(C(=O)NCC3CC(F)CO3)c2o1 (centres unmarked) [Compound 49, 5-fluoro-N7-[(4-fluorotetrahydrofuran-2-yl)methyl]-N2-[4-(trifluoromethoxy)phenyl]-1,3-benzoxazole-2,7-dicarboxamide] | < 10 | < 10 |  |  |
| COc1ccc(NC(=O)c2ncc(CC(=O)NCC3CCO3)o2)cc1 (centres unmarked) [Compound 50, N-(4-methoxyphenyl)-5-(2-((oxetan-2-ylmethyl)amino)-2-oxoethyl)oxazole-2-carboxamide] | < 10 | < 10 |  |  |
